Assay results published in patent publication US20240243327A1, “NAPHTHALENE DIIMIDE COMPOUND AND REDOX FLOW BATTERY CONTAINING THE SAME” (Korea Advanced Institute of Science and Technology, priority 2023, published 2024).
Read-outs that look alike come from different tables or passages of the source.

Experiment: Analysis of solubility (UV-Vis calibration at 361 nm, saturated solution at room temperature)
Assay type: physicochemical
Conditions: for solubility: thermodynamic from solid
Experimental: First, the compound was dissolved in 2 mL of deionized water (DI water), and then the UV-Vis spectrum of the solution was measured. 1 mL of the solution was taken out, 1 mL of deionized water was added to reduce the concentration by half, and then the UV-Vis spectrum was measured. This process was repeated several times. A calibration curve was drawn using λ=361 nm (π-π* transition) from the UV-Vis spectrum. At this time, a UV-Vis spectrum of deionized water was used for baseline measurement. […] The solution was filtered, and then the total volume of the solution was recorded. […] of the filtrate was taken, and then deionized water was added to bring the volume to 2 mL. Thereafter, 1 mL of the solution was taken and fresh deionized water was added to dilute the solution to a volume of 2 mL. The UV-Vis spectrum was recorded until the absorbance at λ=361 nm was smaller than 1 a.u. The linear equation of the calibration curve was used to calculate the concentration of the solution, and the molarity equation was used to estimate the maximum solubility of the compound.

SMILES: CN1C(=O)c2ccc3c4c(ccc(c24)C1=O)C(=O)N(C)C3=O [Comparative Example 1, 2,7-dimethylbenzo [lmn] [3,8] phenanthroline-1,3,6,8 (2H,7H) -tetraone]
- solubility in water (deionized water, room temperature, result in words): substantially insoluble in water

SMILES: O=C(O)CN1C(=O)c2ccc3c4c(ccc(c24)C1=O)C(=O)N(CC(=O)O)C3=O [Comparative Example 2, 2,2′-(1,3,6,8-tetraoxo-1,3,6,8-tetrahydrobenzo [lmn] [3,8]phenanthroline-2,7-diyl)diacetate Potassium]
- solubility (saline or isotonic, 1 M KCl solution as printed, read-out: solubility in the 1 M KCl solution): ~25 mM

SMILES: C[N+](C)(C)CCC[N+](C)(C)CCCN1C(=O)c2ccc3c4c(ccc(c24)C1=O)C(=O)N(CCC[N+](C)(C)CCC[N+](C)(C)C)C3=O [Example 1]
- solubility (1.5 M KCl aqueous solution, saline or isotonic, KCl aqueous solution (method: 1.5 M KCl), room temperature, read-out: solubility in the KCl solution): ~1200 mM
- solubility (deionized water, room temperature, read-out: solubility in water): ~1500 mM
